# According to US7323303B2, “Modified β-lactamases and uses thereof” (priority 2003, dated 2008):
# Assays:
# E166Cf enzyme [1] = target: T1, E166Cf enzyme (Bacillus cereus, UniProt P00809, E185C); test: Time-resolved fluorescence of E166Cf enzyme with penicillins and cephalosporins; assay type: biochemical; settings: E166Cf 1.2×10^−7 M, 50 mM phosphate buffer pH 7.0; up to one hour
# T1 construct: made in house; host or cells: B. subtilis 1A304 (φ105MU331); then labelled chemically
# T1 sequence (P00809 28-306 E185C): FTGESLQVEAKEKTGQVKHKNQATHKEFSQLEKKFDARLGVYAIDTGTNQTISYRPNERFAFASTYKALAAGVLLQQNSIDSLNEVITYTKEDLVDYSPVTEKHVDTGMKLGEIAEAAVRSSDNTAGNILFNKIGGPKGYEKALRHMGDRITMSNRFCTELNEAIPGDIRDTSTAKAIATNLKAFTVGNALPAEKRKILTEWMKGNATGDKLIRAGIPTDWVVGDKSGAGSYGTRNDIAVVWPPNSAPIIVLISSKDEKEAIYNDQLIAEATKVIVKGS
# Procedure: Fluorescence measurements of the E166Cf enzyme in the presence of penicillin G, penicillin V, ampicillin, cefuroxime, cefoxitin and moxalactam were performed on a Perkin Elmer LS50B spectrofluorometer. For time-resolved fluorescence measurement, excitation and emission wavelengths were set at 494 and 515 nm respectively. Both excitation and emission slit widths were set at 5 nm. All fluorescence measurements were performed at room temperature.
# With penicillin G as substrate, the fluorescence signal of the E166Cf enzyme (1.2×10^−7 M) at 515 nm in 50 mM phosphate buffer (pH 7.0) increases as a function of the antibiotic concentration (FIG. 4). The time-resolved fluorescence signals of the E166Cf enzyme at 515 nm were also measured with various concentrations of penicillin G (FIG. 5). At low antibiotic concentration (1.0×10^−7 and 1.0×10^−6 M), the fluorescence intensity of the E166Cf enzyme increases gradually and then declines. At high antibiotic concentration (1.0×10^−5 and 1.0×10^−4 M), the fluorescence signal increases instantaneously and levels off to a plateau. The fluorescence signal stays at the plateau for a certain length of time and then declines afterwards. Similar results were obtained with penicillin V and ampicillin (FIGS. 6 and 7).
# With cefuroxime, cefoxitin and moxalactam as substrates, the fluorescence intensities of the E166Cf enzyme (1.2×10^−7 M) at 515 nm in 50 mM phosphate buffer (pH 7.0) also increase as a function of antibiotic concentration (FIGS. 8 to 10).
# (§1) At high substrate concentration (1.0×10^−5 and 1.0×10^−4 M), the penicillin substrates rapidly occupy the active sites to form the ES complexes, thus switching on the fluorescence of the fluorescein labels instantaneously. […] This can be verified by the fact that the ‘plateau time’ (8 and 22 min for 1.0×10^−5 and 1.0×10^−4 M penicillin G respectively) is consistent with the ‘substrate hydrolysis time’ determined by spectrophotometric assays (7 and 20 min for 1.0×10^−5 and 1.0×10^−4 M penicillin G respectively). When most of the penicillin substrates have been hydrolyzed to carboxylic acids, the fluorescence signal of the labeled enzyme will decline subsequently.
# E166Cf enzyme [2] = target: T1, E166Cf enzyme; test: Circular dichroism assay of antibiotic hydrolysis by E166Cf; assay type: biochemical; settings: 1.0×10^−4 M antibiotic, E166Cf 1.2×10^−7 M, one hour incubation
# Text: The absence of a declining fluorescence signal for cefuroxime, cefoxitin and moxalactam can be ascribed to the poor hydrolytic activities of the E166Cf enzyme towards these antibiotics (very low k2 and/or k3) (FIG. 14). As a result, the cephalosporin substrates stay in the active sites. To verify this, the activities of the labeled enzyme with cefuroxime, cefoxitin and moxalactam as substrates were monitored by circular dichroism (CD) spectropolarimetry. […] Therefore, by measuring the CD signals of cefuroxime, cefoxitin and moxalactam (1.0×10^−4 M) at 258, 264 and 265 nm respectively as a function of time in the presence of E166Cf enzyme (1.2×10^−7 M), the hydrolytic activities of the labeled enzyme towards these antibiotics can be monitored.
# [3] = target: T2, B. cereus penPC β-lactamase (Bacillus cereus, UniProt P00809); test: Drug screening: E166Cf fluorescence in presence of bacterial β-lactamase culture; assay type: biochemical; parameters: key: −: Decline in fluorescence signal (presence of beta-lactam hydrolysis); +: No decline in fluorescence signal (absence of beta-lactam hydrolysis); settings: antibiotic 1.0×10^−4 M, E166Cf 1.2×10^−7 M
# T2 construct: made in house; host or cells: B. subtilis 1A304 (φ105MU331); whole culture used, not purified
# Procedure: (§2) The use of the E166Cf enzyme in screening bacterial β-lactamases against various β-lactam antibiotics was investigated. The principle of our method is that when both E166Cf and bacterial β-lactamase are incubated with ‘β-lactamase-unstable’ antibiotics, the fluorescence of the E166Cf enzyme will be suppressed because of the greater catalytic efficiency of the bacterial enzyme. In contrast, when bacterial β-lactamases are screened against ‘β-lactamase-resistant’ antibiotics, the fluorescence of the E166Cf enzyme will be enhanced because of the poor hydrolytic activity of the bacterial enzyme. Thus, any β-lactam antibiotic that causes the labeled enzyme to increase its fluorescence intensity in the presence of bacterial β-lactamases can be used in clinical treatments.
# (§3) The β-lactamase II, penPC β-lactamase and penP β-lactamase were expressed in B. subtilis 1A304 (φ105MU331). These enzymes were prepared according to the procedures described previously (Reference 7: Thomwell, S. J. East, A. K., Errington, J. An efficient expression and secretion system based on Bacillus subtilis phage phi 105 and its uses for the production for B. cereus β-lactamase I. (1993) Gene 133, 47-53) with slight modifications. A bacterial strain was streaked on an agar plate containing 5 μg/ml chloramphenicol, and the plate was incubated at 37° C. for 24 h. A single bacterial colony from the agar plate was inoculated into 100 ml of sterilized BHY medium (37 g/l brain heart infusion and 5 g/l yeast extract) which was then incubated at 37° C. with shaking at 300 rpm overnight. About 7 ml of overnight inoculum was added to a baffled conical flask containing 100 ml of sterilized BHY medium. The inoculated medium was incubated at 37° C. with shaking at 300 rpm. When the optical density of the bacterial culture at 600 nm reached 3.5 to 4.0, the bacterial culture was heated in a water bath at 51° C. for 5 min. Afterwards, the bacterial culture was incubated at 37° C. with shaking at 300 rpm for a further 6 h. The bacterial culture was then harvested and stored at −20° C.
# (§4) Fluorescence measurements of the E166Cf enzyme in the presence of bacterial cultures and β-lactam antibiotics were performed on a FLUOstar microplate reader (BMG Labtechnologies) equipped with two sample injectors. Excitation and emission filters of 485 and 520 nm respectively were used. For B. cereus penPC β-lactamase, B. licheniformis penP β-lactamase and B. cereus β-lactamase II, the labeled enzymes were mixed with the bacterial cultures, and the mixtures were made up to 300 μl with 50 mM phosphate buffer (pH 7.0) in a 96-well microtiter plate (Corning Costar). For the purpose of comparison, B. subtilis cultures, which produced no β-lactamase, were set up as negative controls. For E. coli. TEM-1 β-lactamase, the labeled enzymes were mixed with the bacterial cultures without dilution. E. coli. cultures, which produced no β-lactamase, were set up as negative controls for comparison. The antibiotics were then added to the bacterial samples by the injectors.
# (§5) The results from the time-resolved fluorescence measurements of the labeled enzyme (1.2×10^−7 M) in the presence of various bacterial cultures and β-lactam antibiotics (1.0×10^−4 M) are shown in FIGS. 23 to 26.
# B. cereus β-lactamase II = target: T3, B. cereus β-lactamase II (Bacillus cereus, UniProt P04190); test: as above; assay type: biochemical; parameters: key: −: Decline in fluorescence signal (presence of beta-lactam hydrolysis); +: No decline in fluorescence signal (absence of beta-lactam hydrolysis); settings: antibiotic 1.0×10^−4 M, E166Cf 1.2×10^−7 M
# T3 construct: made in house; host or cells: B. subtilis 1A304 (φ105MU331); whole culture used, not purified
# Procedure: as §2, §3, §4, §5
# [4] = target: T4, B. licheniformis penP β-lactamase (Bacillus licheniformis, UniProt P00808); test: as above; assay type: biochemical; parameters: key: −: Decline in fluorescence signal (presence of beta-lactam hydrolysis); +: No decline in fluorescence signal (absence of beta-lactam hydrolysis); settings: antibiotic 1.0×10^−4 M, E166Cf 1.2×10^−7 M
# T4 construct: made in house; host or cells: B. subtilis 1A304 (φ105MU331); whole culture used, not purified
# Procedure: as §2, §3, §4, §5
# [5] = target: T5, E. coli TEM-1 β-lactamase (Escherichia coli, UniProt P62593); test: as above; assay type: biochemical; parameters: key: −: Decline in fluorescence signal (presence of beta-lactam hydrolysis); +: No decline in fluorescence signal (absence of beta-lactam hydrolysis); settings: E. coli TEM-1 culture, undiluted; antibiotic 1.0×10^−4 M; E166Cf 1.2×10^−7 M
# T5 construct: made in house; host or cells: E. coli BL21(DE3); whole overnight culture used undiluted, not purified
# Procedure: as §2
# The TEM-1 β-lactamase was expressed in E. coli. BL21(DE3). Preparation of the TEM-1 β-lactamase was performed as follows. A bacterial strain was streaked on an agar plate containing 100 μg/ml ampicillin, and the plate was incubated at 37° C. for 24 h. A single bacterial colony from the plate was inoculated into 100 ml of sterilized LB broth (28 g/l) which was then incubated at 37° C. with shaking at 280 rpm overnight. After overnight incubation, the bacterial culture was harvested and stored at −20° C.
# as §4, §5
# [6] = target: T6, E166C mutant of β-lactamase I (Bacillus cereus, UniProt P00809, E185C); test: Spectrophotometric substrate hydrolysis, steady-state kinetics; assay type: biochemical; settings: 50 mM potassium phosphate buffer pH 7.0, 20° C.
# T6 construct: made in house; host or cells: B. subtilis 1A304 (φ105MU331)
# T6 sequence (P00809 28-306 E185C): T1 sequence (P00809 28-306 E185C)
# Procedure: (§6) The hydrolytic activities of the wild-type β-lactamase I, E166C and E166Cf mutants towards penicillin G, penicillin V and ampicillin (Sigma) were monitored by the spectrophotometric method. The spectrophotometric measurements were performed on a Perkin Elmer Lambda Bio20 UV/Vis spectrometer. Substrate hydrolysis was monitored at a fixed wavelength: 235 nm for ampicillin, 232 nm for penicillin G and penicillin V. The initial rate of substrate hydrolysis occurring within 5 min was determined in duplicate at each of 6 different substrate concentrations in 50 mM potassium phosphate buffer (pH 7.0) at 20° C. The initial rates determined were then treated as described in Reference 5 to calculate the Michaelis constants (Km) and turnover numbers (kcat) using non-linear regression analysis (equation 1):
# (§7) [formula] where v is the initial rate of substrate hydrolysis, Vmax the maximum rate of reaction, [S] the initial substrate concentration, Km the Michaelis constant and kcat=Vmax/[Enzyme].
# (§8) The measured steady-state kinetic parameters for hydrolysis of penicillin G, penicillin V and ampicillin by the wild-type β-lactamase I, E166C and E166Cf mutants are summarized in Table 1.
# wild-type β-lactamase I = target: T7, wild-type β-lactamase I (Bacillus cereus, UniProt P00809); test: as above; assay type: biochemical; settings: 50 mM potassium phosphate buffer pH 7.0, 20° C.
# T7 construct: made in house; host or cells: B. subtilis 1A304 (φ105MU331)
# Procedure: as §6, §7, §8
# [7] = target: T8, E166Cf (fluorescein-labeled E166C mutant of β-lactamase I) (Bacillus cereus, UniProt P00809, E185C); test: as above; assay type: biochemical; settings: E166Cf; 50 mM potassium phosphate buffer pH 7.0, 20° C.
# T8 construct: made in house; host or cells: B. subtilis 1A304 (φ105MU331); then labelled chemically
# T8 sequence (P00809 28-306 E185C): T1 sequence (P00809 28-306 E185C)
# Procedure: as §6, §7, §8, §1
# [8] = test system: CC1(C)S[C@@H]2[C@H](NC(=O)[C@H](N)c3ccccc3)C(=O)N2[C@H]1C(=O)O; test: as above; assay type: biochemical, Bacillus cereus; settings: other: Wild-type, 50 mM potassium phosphate buffer pH 7.0, 20° C.
# Procedure: as §6, §7, §8
# T5 sequence (P62593 24-286 limits assumed): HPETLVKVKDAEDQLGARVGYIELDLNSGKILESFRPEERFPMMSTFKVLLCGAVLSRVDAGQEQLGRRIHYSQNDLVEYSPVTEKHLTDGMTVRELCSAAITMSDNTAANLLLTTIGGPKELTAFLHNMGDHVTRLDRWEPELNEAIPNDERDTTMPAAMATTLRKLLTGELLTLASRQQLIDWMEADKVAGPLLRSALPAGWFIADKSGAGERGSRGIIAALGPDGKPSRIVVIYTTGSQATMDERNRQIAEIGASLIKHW
# T4 sequence (P00808 27-307): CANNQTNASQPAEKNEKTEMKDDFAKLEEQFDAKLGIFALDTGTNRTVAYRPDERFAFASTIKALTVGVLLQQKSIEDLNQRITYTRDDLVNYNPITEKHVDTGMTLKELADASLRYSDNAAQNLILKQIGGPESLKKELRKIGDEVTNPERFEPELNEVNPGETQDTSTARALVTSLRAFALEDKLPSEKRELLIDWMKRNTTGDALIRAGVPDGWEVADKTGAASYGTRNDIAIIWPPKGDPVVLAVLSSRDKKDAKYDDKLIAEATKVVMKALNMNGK
# T3 sequence (P04190 31-257): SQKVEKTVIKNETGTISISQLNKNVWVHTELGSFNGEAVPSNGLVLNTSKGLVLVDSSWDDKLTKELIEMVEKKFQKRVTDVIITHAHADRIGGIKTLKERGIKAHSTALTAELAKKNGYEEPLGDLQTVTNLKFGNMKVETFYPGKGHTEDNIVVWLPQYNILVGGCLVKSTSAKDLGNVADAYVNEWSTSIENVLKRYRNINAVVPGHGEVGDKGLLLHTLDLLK
# T2 sequence (P00809 28-306): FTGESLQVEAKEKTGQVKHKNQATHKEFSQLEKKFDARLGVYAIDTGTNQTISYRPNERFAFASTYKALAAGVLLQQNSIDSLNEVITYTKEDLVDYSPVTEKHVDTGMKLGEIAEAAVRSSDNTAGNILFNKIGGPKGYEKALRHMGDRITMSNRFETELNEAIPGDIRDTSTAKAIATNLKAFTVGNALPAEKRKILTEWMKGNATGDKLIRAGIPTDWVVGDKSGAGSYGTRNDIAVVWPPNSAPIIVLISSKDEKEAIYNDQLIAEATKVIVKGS
# T7 sequence (P00809 28-306): as above
Compound,time course of E166Cf fluorescence signal at 515 nm (E166Cf enzyme [1]),change in CD signal of antibiotic (hydrolysis by E166Cf) (E166Cf enzyme [2]),fluorescence signal of E166Cf (beta-lactam hydrolysis) [3],fluorescence signal of E166Cf (beta-lactam hydrolysis) (B. cereus β-lactamase II),fluorescence signal of E166Cf (beta-lactam hydrolysis) [4],fluorescence signal of E166Cf (beta-lactam hydrolysis) [5],Km [6] [µM],kcat [6] [s⁻¹],Km (wild-type β-lactamase I) [µM],kcat (wild-type β-lactamase I) [s⁻¹],Km [7] [µM],kcat [7] [s⁻¹],Km [8] [µM],kcat [8] [s⁻¹],kcat/Km [8] [M⁻¹ s⁻¹]
"CO[C@@]1(NC(=O)Cc2cccs2)C(=O)N2C(C(=O)O)=C(COC(N)=O)CS[C@@H]21 [Cefoxitin, cefoxitin]",no subsequent decline in intensity was observed,no significant changes in the CD signals,+,+,+,+,,,,,,,,,
"CO/N=C(\C(=O)N[C@@H]1C(=O)N2C(C(=O)O)=C(COC(N)=O)CS[C@H]12)c1ccco1 [Cefuroxime, cefuroxime]",no subsequent decline in intensity was observed,no significant changes in the CD signals,+,−,−,+,,,,,,,,,
"CO[C@@]1(NC(=O)C(C(=O)O)c2ccc(O)cc2)C(=O)N2C(C(=O)O)=C(CSc3nnnn3C)CO[C@@H]21 (stereo partly shown) [Moxalactam, moxalactam]",no subsequent decline in intensity was observed,no significant changes in the CD signals,+,+,+,+,,,,,,,,,
"CC1(C)S[C@@H]2[C@H](NC(=O)COc3ccccc3)C(=O)N2[C@H]1C(=O)O [Penicillin V, penicillin V]",,,−,−,−,−,71 ± 6,1.53 ± 0.03,52 ± 4,2109 ± 4,117 ± 10,2.97 ± 0.06,,,
wild-type β-lactamase I (Bacillus cereus),,,,,,,,,,,,,142 ± 8,5210 ± 275,3.7e+07 ± 4e+06
